We go through 18 molecules from patent US20260109715A1, “IMIDAZOPYRIDINE DERIVATIVES WITH BICYCLIC STRUCTURE” (PUBLIC UNIVERSITY CORPORATION YOKOHAMA CITY UNIVERSITY, priority 2022, published 2026).

One test deals with human SMG1 enzyme (Homo sapiens, UniProt Q96Q15). Kind of test: Measurement of SMG1 kinase activity (ADP-Glo Kinase Assay). To be noted: purified human SMG1 enzyme 5 nM, Upf1 peptide substrate, ATP 4 μM; qAC50 synonymous with IC50; read-out: Test Example 1 ADP-Glo IC50. It counts as biochemical. From the text: The SMG1 kinase inhibitory activity of a compound of the present invention or a pharmaceutically acceptable salt thereof can be measured, for example, by the method described below. Using purified human SMG1 protein and a substrate peptide as materials, the kinase activity can be measured by the ADP-Glo Kinase Assay; the SMG1 kinase inhibitory activity of a test substance can be evaluated by comparing the kinase activity in the presence and absence of the test substance.
The reaction was performed by the ADP-Glo Kinase Assay (Promega, catalog number V9102) using a 384-well plate under the conditions of an assay buffer (100 mM HEPES (pH 7.5), 50 mM NaCl, 10 mM MnCl2, 0.01% BSA, 0.1% Tween 20.5 mM TCEP). After incubating a test substance (DMSO solution; final DMSO concentration: 1%) and purified human SMG1 enzyme (Genes Dev. 2011 Jan. 15; 25(2): 153-164, produced by Daiichi Sankyo RD Novare Co., Ltd.; final concentration: 5 nM) at room temperature for 15 minutes, a substrate, Upf1 peptide (Biotin-(PEG8) QIDVALSQDSTYQG, produced by Eurofins genomics; final concentration: 8 μg/mL), and ATP (Promega: 4 μM) were added, and the mixture was reacted at room temperature for 60 minutes (see Non-Patent Literature R. Melero, et al., Structure Volume 22, Issue 8, 5 Aug. 2014, Pages 1105-1119 for the Upf1 peptide). ADP-Glo Reagent was added, and the mixture was reacted at room temperature for 40 minutes. Kinase Detection Reagent was added, and the mixture was reacted for another 30 minutes. The luminescence intensity was measured using EnVision (PerkinElmer).
The activity value (%) of the test substance-added well was calculated from the following formula, where the average luminescence intensity of the DMSO-added well was 0% and the average luminescence intensity of the SMG1 enzyme-free well was −100%.
The qAC50 (compound concentration showing 50% inhibition, synonymous with IC50) of the test substance was calculated using the activity value (%) at each concentration by Smart fit of Screener (Genedata). Smart fit is a general 4-parameter logistic regression model.

For test [1], the system named is Snhg1 transcript (NMD target gene) in EMT6 murine breast cancer cell line. Description: Measurement of NMD inhibitory activity in cells (increase in Snhg1 transcript, real-time PCR). Particulars: Mus musculus, 6 hours treatment, concentration giving 1/2 of maximum Snhg1 fold change of positive control, read-out: Test Example 2 Cell-based Snhg1 EC50. Further details: species or system mouse. The procedure:
The NMD inhibitory activity of a compound of the present invention or a pharmaceutically acceptable salt thereof in cells can be measured, for example, by the method described below. EMT6 murine breast cancer cell line is treated with a test substance in vitro for 6 hours, and the increase in the transcript of Snhg1, a known NMD target gene, is quantified as an indicator of NMD inhibition. Quantification is performed by real-time PCR.
NMD inhibitory activity was measured by treating EMT6 murine breast cancer cell line (ATCC) with a test substance and quantifying the increase in the transcript of Snhg1, an NMD target gene (see F. Usui, et al., Scientific Reports volume 9, Article number: 1279 (2019) for the NMD target gene). That is, EMT6 cells were suspended in Waymouth's medium (Gibco, 15% FBS) and seeded in a 96-well plate at 2×10^4 cells/well. The cells were cultured for 1 day. The next day, serially diluted test substance (DMSO solution, final DMSO concentration: 2%) was added. After culturing for 6 hours, the supernatant was removed, and RNA was extracted using the RNeasy 96 kit (QIAGEN, 74182). After synthesizing cDNA using the High Capacity cDNA Reverse Transcription kit (Applied Biosystems, 4368813), the cDNA was mixed with PrimeTime Gene Expression Master Mix (Integrated DNA Technologies) and various probes, and gene expression was quantified using QuantStudio 6 Flex (Thermo Fisher Scientific Inc.). For the probe for the Snhg1 gene, which is an NMD target, Mm.PT.58.44039547 (FAM)(Integrated DNA Technologies) was used, and for the probe for the Tbp gene, which is an endogenous control, Mm00446973_m1 Tbp (VIC-PL) (Applied Biosystems) was used. The relative quantification of Snhg1 transcripts was calculated by the ΔΔCT method, using Thp as an endogenous control and setting the expression level of Snhg1 in untreated wells to 1.
A known NMD inhibitory compound (pyrimidine derivative Example 11i, Bioorg Med Chem Lett. 2012, 22(21), 6636-41) was used as a positive control drug for NMD inhibition. The NMD inhibitory activity of the test substance-added well was calculated as follows: the maximum fold change in Sngh1 expression in the positive control drug-added well relative to that in the untreated well was defined as the maximum NMD inhibitory activity, and the EC50 (compound concentration showing 50%/activity) of the test substance showing a ½-fold change was calculated by the GROWTH function of Microsoft Excel.

Each structure is given as a SMILES string.

Sequence of human SMG1 enzyme (Q96Q15 whole entry): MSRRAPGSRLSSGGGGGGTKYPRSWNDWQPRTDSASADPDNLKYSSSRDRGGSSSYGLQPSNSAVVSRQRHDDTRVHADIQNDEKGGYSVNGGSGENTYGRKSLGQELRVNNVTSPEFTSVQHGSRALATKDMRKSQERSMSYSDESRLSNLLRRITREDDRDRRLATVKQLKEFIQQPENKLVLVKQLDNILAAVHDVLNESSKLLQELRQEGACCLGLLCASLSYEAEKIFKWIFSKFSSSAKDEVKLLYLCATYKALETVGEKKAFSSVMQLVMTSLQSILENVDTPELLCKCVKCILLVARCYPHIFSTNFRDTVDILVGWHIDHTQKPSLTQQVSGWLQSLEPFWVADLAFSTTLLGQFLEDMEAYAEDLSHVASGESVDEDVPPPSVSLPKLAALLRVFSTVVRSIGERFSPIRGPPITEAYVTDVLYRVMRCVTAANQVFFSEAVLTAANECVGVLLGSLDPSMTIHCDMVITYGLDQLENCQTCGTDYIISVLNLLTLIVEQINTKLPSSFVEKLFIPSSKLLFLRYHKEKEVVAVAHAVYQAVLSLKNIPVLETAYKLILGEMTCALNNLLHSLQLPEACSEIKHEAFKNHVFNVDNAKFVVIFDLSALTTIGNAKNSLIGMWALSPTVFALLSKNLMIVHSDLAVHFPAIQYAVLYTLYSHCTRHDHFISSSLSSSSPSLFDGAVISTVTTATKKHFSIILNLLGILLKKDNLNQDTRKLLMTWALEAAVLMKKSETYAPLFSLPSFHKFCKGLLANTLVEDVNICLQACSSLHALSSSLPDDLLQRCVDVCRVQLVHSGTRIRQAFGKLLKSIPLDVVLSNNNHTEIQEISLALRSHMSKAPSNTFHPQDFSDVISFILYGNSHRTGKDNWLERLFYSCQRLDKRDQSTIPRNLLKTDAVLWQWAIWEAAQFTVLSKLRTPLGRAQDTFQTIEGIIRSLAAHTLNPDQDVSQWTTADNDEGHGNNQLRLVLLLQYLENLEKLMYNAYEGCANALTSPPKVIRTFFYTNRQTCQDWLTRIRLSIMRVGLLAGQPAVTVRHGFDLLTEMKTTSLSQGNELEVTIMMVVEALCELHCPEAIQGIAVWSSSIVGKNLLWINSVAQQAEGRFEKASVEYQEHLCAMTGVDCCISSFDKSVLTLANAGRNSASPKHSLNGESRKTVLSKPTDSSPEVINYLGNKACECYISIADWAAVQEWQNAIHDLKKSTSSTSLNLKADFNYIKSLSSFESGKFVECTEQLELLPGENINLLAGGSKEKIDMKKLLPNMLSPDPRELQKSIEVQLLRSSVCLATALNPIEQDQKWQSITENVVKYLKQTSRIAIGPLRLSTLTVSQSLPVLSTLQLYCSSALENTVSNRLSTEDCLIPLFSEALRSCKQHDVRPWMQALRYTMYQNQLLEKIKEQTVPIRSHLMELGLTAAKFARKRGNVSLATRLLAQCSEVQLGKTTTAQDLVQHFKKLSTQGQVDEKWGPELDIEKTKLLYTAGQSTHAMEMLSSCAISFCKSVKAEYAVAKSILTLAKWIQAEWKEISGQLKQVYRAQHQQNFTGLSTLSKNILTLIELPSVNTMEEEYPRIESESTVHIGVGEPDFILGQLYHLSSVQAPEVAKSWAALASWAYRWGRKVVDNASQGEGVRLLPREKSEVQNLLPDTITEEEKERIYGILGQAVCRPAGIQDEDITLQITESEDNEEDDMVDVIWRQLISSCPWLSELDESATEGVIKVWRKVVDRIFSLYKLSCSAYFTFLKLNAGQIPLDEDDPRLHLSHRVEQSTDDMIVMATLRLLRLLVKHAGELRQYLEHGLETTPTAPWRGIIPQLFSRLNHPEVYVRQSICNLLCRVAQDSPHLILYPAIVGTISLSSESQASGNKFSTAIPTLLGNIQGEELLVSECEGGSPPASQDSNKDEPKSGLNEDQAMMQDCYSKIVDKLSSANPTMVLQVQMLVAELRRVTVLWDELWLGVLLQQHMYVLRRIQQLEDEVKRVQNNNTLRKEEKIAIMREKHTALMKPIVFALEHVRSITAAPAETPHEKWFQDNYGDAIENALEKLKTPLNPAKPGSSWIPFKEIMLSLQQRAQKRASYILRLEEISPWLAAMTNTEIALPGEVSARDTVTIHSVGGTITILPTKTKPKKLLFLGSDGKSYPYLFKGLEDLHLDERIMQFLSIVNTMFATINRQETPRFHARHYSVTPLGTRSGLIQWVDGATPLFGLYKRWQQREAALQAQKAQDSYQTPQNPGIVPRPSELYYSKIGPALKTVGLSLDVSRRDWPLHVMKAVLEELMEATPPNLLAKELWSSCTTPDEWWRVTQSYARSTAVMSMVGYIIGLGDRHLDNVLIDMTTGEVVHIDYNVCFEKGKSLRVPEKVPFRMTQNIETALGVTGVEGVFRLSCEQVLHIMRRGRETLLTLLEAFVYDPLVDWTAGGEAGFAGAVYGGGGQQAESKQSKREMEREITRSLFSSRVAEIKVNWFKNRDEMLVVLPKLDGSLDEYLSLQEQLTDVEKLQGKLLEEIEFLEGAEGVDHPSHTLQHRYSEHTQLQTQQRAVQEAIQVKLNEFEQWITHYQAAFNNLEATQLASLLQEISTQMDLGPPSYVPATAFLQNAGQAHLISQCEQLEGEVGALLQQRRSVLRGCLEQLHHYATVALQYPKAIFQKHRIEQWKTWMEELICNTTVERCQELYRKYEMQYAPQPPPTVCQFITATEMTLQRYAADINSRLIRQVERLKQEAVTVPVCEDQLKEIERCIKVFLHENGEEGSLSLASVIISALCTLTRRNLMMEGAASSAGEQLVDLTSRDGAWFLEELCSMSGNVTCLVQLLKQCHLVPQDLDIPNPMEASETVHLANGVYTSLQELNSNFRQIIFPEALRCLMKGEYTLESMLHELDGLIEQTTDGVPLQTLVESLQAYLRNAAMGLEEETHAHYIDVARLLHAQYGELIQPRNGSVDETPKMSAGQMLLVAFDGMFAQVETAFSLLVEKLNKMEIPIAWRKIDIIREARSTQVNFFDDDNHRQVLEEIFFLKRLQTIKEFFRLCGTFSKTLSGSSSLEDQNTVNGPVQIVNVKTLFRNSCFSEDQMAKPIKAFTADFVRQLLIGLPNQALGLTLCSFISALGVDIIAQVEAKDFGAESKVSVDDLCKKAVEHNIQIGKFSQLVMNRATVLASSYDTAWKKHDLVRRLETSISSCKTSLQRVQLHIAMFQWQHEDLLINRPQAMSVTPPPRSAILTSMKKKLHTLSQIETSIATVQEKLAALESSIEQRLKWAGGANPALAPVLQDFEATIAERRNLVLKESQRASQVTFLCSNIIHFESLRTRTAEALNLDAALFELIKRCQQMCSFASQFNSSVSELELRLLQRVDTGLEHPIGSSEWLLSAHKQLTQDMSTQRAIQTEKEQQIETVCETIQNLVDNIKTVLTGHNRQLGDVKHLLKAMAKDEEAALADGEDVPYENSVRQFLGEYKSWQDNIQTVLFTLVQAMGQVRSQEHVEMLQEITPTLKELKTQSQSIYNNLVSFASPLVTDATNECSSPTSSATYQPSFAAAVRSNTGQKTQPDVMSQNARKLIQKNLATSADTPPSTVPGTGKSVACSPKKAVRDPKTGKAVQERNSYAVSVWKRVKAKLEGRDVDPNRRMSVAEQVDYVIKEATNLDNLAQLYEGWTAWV

Consider `COc1cc(C(F)(F)F)ncc1-c1nccc2[nH]c(=O)c(-c3nc4c(C)nc(Cl)cc4[nH]3)cc12` [Example 64, 3-(6-chloro-4-methyl-1H-imidazo[4,5-c]pyridin-2-yl)-5-[4-methoxy-6-(trifluoromethyl)pyridin-3-yl]-1,6-naphthyridin-2(1H)-one], for which the IC50 on human SMG1 enzyme was determined as 0.84 nM. Moreover, the 50% effective concentration (EC50) in test [1] was 15 nM.
For `COc1cc(C(C)(F)F)ncc1-c1nccc2[nH]c(=O)c(-c3nc4c(C)nc(Cl)cc4[nH]3)cc12` [Example 65, 3-(6-chloro-4-methyl-1H-imidazo[4,5-c]pyridin-2-yl)-5-[6-(1,1-difluoroethyl)-4-methoxypyridin-3-yl]-1,6-naphthyridin-2(1H)-one], in that order: 0.69 nM and 15 nM.
For `COc1nc(C)ccc1-c1nccc2[nH]c(=O)c(-c3nc4cnc(Cl)cc4[nH]3)cc12` [Example 66, 3-(6-chloro-1H-imidazo[4,5-c]pyridin-2-yl)-5-(2-methoxy-6-methylpyridin-3-yl)-1,6-naphthyridin-2(1H)-one], in that order: 2.2 nM and 67 nM.
Taken in the same sequence, the figures for `COc1nc(C)ccc1-c1nccc2[nH]c(=O)c(-c3nc4c(C)nc(Cl)cc4[nH]3)cc12` [Example 67, 3-(6-chloro-4-methyl-1H-imidazo[4,5-c]pyridin-2-yl)-5-(2-methoxy-6-methylpyridin-3-yl)-1,6-naphthyridin-2(1H)-one] were 1 nM and 32 nM.
Consider `COc1nc(C)ncc1-c1nccc2[nH]c(=O)c(-c3nc4c(NCC(F)F)nc(Cl)cc4[nH]3)cc12` [Example 69, 3-(6-chloro-4-[(2,2-difluoroethyl)amino]-1H-imidazo[4,5-c]pyridin-2-yl)-5-(4-methoxy-2-methylpyrimidin-5-yl)-1,6-naphthyridin-2(1H)-one], for which the concentration for half-maximal inhibition (IC50) at human SMG1 enzyme was determined as 0.91 nM. For the same molecule, the EC50 in test [1] worked out at 6.8 nM.
As to `COc1ncc(-c2nccc3[nH]c(=O)c(-c4nc5c(N6C[C@H](F)C[C@H]6C)nc(Cl)cc5[nH]4)cc23)c(OC)n1` [Example 71, 3-(6-chloro-4-[(2R,4R)-4-fluoro-2-methylpyrrolidin-1-yl]-1H-imidazo[4,5-c]pyridin-2-yl)-5-(2,4-dimethoxypyrimidin-5-yl)-1,6-naphthyridin-2(1H)-one], the concentration for half-maximal inhibition (IC50) at human SMG1 enzyme came out at 1.3 nM. In test [1], the half-maximal effective concentration (EC50) worked out at 2.3 nM.
For `CCc1nc(Cl)cc2[nH]c(-c3cc4c(-c5cnc(C6CC6)cc5OC(F)F)nccc4[nH]c3=O)nc12` [Example 75, 3-(6-chloro-4-ethyl-1H-imidazo[4,5-c]pyridin-2-yl)-5-[6-cyclopropyl-4-(difluoromethoxy)pyridin-3-yl]-1,6-naphthyridin-2(1H)-one], in that order: 1.2 nM and 51 nM.
Consider `Cn1ccc(-c2nccc3[nH]c(=O)c(-c4nc5cnc(Cl)cc5[nH]4)cc23)c1` [Example 86, 3-(6-chloro-1H-imidazo[4,5-c]pyridin-2-yl)-5-(1-methyl-1H-pyrrol-3-yl)-1,6-naphthyridin-2(1H)-one], for which, on human SMG1 enzyme, the IC50 turned out to be 1.8 nM. Further, the EC50 in test [1] amounted to 43 nM.
For `CCc1nc(Cl)cc2[nH]c(-c3cc4c(-c5c(C)cnn5C)nccc4[nH]c3=O)nc12` [Example 87, 3-(6-chloro-4-ethyl-1H-imidazo[4,5-c]pyridin-2-yl)-5-(1,4-dimethyl-1H-pyrazol-5-yl)-1,6-naphthyridin-2(1H)-one], in that order: 1.3 nM and 59 nM.
Regarding `Cc1nn(C)c(C)c1-c1nccc2[nH]c(=O)c(-c3nc4cnc(Cl)cc4[nH]3)cc12` [Example 88, 3-(6-chloro-1H-imidazo[4,5-c]pyridin-2-yl)-5-(1,3,5-trimethyl-1H-pyrazol-4-yl)-1,6-naphthyridin-2(1H)-one], the concentration for half-maximal inhibition (IC50) at human SMG1 enzyme was found to be 1.1 nM. The EC50 in test [1] was found to be 46 nM.
For `CCc1nc(Cl)cc2[nH]c(-c3cc4c(-c5c(C)nn(C)c5C)nccc4[nH]c3=O)nc12` [Example 89, 3-(6-chloro-4-ethyl-1H-imidazo[4,5-c]pyridin-2-yl)-5-(1,3,5-trimethyl-1H-pyrazol-4-yl)-1,6-naphthyridin-2(1H)-one], in that order: 0.59 nM and 14 nM.
As to `Cc1nn(CC2CC2)c(C)c1-c1nccc2[nH]c(=O)c(-c3nc4cnc(Cl)cc4[nH]3)cc12` [Example 90, 3-(6-chloro-1H-imidazo[4,5-c]pyridin-2-yl)-5-[1-(cyclopropylmethyl)-3,5-dimethyl-1H-pyrazol-4-yl]-1,6-naphthyridin-2(1H)-one], the IC50 at human SMG1 enzyme was 1.5 nM. In test [1], the EC50 came to 74 nM.
For `Cc1c(-c2nccc3[nH]c(=O)c(-c4nc5cnc(Cl)cc5[nH]4)cc23)c(C2CC2)nn1CC(F)F` [Example 93, 3-(6-chloro-1H-imidazo[4,5-c]pyridin-2-yl)-5-[3-cyclopropyl-1-(2,2-difluoroethyl)-5-methyl-1H-pyrazol-4-yl]-1,6-naphthyridin-2(1H)-one], in that order: 1.2 nM and 81 nM.
For `Cc1c(-c2nccc3[nH]c(=O)c(-c4nc5cnc(Cl)cc5[nH]4)cc23)c(C(F)F)nn1C(C)C` [Example 94, 3-(6-chloro-1H-imidazo[4,5-c]pyridin-2-yl)-5-[3-(difluoromethyl)-5-methyl-1-(propan-2-yl)-1H-pyrazol-4-yl]-1,6-naphthyridin-2(1H)-one], in that order: 1.5 nM and 60 nM.
On to `O=c1[nH]c2ccnc(-c3cnn4c3OCCC4)c2cc1-c1nc2cnc(Cl)cc2[nH]1` [Example 95, 3-(6-chloro-1H-imidazo[4,5-c]pyridin-2-yl)-5-(6,7-dihydro-5H-pyrazolo[5,1-b][1,3]oxazin-3-yl)-1,6-naphthyridin-2(1H)-one], for which, at human SMG1 enzyme, the IC50 stood at 1 nM. In addition, the concentration giving a half-maximal response (EC50) in test [1] turned out to be 82 nM.
Taken in the same sequence, the figures for `O=C1Nc2ccnc(-c3ccccc3Cl)c2CN1c1nc2cnc(Cl)cc2[nH]1` [Example 102, 3-(6-chloro-1H-imidazo[4,5-c]pyridin-2-yl)-5-(2-chlorophenyl)-3,4-dihydropyrido[4,3-d]pyrimidin-2(1H)-one] were 2.8 nM and 76 nM.
Taken in the same sequence, the figures for `COc1ccccc1-c1nccc2c1CN(c1nc3cnc(Cl)cc3[nH]1)C(=O)N2` [Example 103, 3-(6-chloro-1H-imidazo[4,5-c]pyridin-2-yl)-5-(2-methoxyphenyl)-3,4-dihydropyrido[4,3-d]pyrimidin-2(1H)-one] were 3.3 nM and 71 nM.
For `O=c1[nH]c2ccnc(C3=CCCN(S(=O)(=O)C4CC4)C3)c2cc1-c1nc2cnc(Cl)cc2[nH]1` [Example 104, 3-(6-chloro-1H-imidazo[4,5-c]pyridin-2-yl)-5-[1-(cyclopropylsulfonyl)-1,2,5,6-tetrahydropyridin-3-yl]-1,6-naphthyridin-2(1H)-one], in that order: 0.79 nM and 75 nM.
